Source: paper doi:10.1101/2023.12.04.569845, “Identification of 4-(6-((2-methoxyphenyl)amino)pyrazin-2-yl)benzoic acids as CSNK2A inhibitors with antiviral activity and improved selectivity over PIM3” (bioRxiv, 2023)
Where two headings read alike, the source gives them in different places. One block for each compound: values may come before it.

How the values were obtained:
Assay in all cases: biochemical
Design in all cases: Thermal shift (DSF, SYPRO Orange) Tm shift of recombinant kinase domains at 10 uM compound
JNK2 = molecular target: T1, JNK2 (Homo sapiens, UniProt P45984)
T1 construct: gene MAPK9

MST3 = molecular target: T2, MST3 (Homo sapiens, UniProt Q9Y6E0)
T2 construct: gene STK24

MSSK1 = molecular target: T3, MSSK1 (Homo sapiens, UniProt Q9UPE1)
T3 construct: gene SRPK3

SLK = SLK (Homo sapiens, UniProt Q9H2G2)
DYRK1A = DYRK1A (Homo sapiens, UniProt Q13627)
BRAF = BRAF (Homo sapiens, UniProt P15056)
CAMK4 = molecular target: T4, CAMK4 (Homo sapiens, UniProt Q16566)
T4 sequence (Q16566 1-473): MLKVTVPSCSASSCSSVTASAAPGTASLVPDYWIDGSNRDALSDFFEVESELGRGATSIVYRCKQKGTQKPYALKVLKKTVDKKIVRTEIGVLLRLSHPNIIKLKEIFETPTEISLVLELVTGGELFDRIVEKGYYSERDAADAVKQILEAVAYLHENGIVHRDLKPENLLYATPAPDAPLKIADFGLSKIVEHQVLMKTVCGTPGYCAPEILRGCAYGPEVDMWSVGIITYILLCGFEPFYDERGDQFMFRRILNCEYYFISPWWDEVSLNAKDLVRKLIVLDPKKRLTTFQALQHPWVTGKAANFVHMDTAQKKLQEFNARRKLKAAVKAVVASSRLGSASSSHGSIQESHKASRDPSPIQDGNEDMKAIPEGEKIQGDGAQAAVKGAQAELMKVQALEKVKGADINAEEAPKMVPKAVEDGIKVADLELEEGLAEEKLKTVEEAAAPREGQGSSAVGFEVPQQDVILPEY

AURKB = AURKB (Homo sapiens, UniProt Q96GD4)
FGFR2 = FGFR2 (Homo sapiens, UniProt P21802)
EPHB3 = molecular target: T5, EPHB3 (Homo sapiens, UniProt P54753)
T5 sequence (P54753 1-998): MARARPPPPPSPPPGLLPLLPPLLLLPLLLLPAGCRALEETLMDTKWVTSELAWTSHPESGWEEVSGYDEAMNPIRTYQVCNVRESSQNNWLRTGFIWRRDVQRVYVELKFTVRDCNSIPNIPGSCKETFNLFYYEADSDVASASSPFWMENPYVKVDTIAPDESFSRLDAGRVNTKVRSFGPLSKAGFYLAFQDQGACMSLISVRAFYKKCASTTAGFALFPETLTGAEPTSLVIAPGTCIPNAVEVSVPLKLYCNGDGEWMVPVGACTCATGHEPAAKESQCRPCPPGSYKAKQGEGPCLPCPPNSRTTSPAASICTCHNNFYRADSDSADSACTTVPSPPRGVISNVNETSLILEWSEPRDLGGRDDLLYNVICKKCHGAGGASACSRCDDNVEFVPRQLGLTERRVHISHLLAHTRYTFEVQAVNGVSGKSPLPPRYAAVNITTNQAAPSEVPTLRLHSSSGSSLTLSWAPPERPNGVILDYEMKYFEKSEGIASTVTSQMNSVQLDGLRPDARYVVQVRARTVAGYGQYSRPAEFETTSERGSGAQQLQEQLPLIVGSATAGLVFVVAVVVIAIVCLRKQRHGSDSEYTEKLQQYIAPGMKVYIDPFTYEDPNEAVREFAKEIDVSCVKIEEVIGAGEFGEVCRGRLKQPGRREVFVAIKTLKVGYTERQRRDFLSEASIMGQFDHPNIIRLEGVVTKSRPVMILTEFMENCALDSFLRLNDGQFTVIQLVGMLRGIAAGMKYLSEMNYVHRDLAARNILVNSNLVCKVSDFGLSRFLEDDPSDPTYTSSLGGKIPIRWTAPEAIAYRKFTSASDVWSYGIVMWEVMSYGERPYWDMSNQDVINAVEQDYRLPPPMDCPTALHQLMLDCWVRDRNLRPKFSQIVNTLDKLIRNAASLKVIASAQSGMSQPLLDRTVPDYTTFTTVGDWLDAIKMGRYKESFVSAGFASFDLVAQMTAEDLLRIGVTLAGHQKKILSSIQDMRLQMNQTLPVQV

Chain of BRAF (P15056 whole entry): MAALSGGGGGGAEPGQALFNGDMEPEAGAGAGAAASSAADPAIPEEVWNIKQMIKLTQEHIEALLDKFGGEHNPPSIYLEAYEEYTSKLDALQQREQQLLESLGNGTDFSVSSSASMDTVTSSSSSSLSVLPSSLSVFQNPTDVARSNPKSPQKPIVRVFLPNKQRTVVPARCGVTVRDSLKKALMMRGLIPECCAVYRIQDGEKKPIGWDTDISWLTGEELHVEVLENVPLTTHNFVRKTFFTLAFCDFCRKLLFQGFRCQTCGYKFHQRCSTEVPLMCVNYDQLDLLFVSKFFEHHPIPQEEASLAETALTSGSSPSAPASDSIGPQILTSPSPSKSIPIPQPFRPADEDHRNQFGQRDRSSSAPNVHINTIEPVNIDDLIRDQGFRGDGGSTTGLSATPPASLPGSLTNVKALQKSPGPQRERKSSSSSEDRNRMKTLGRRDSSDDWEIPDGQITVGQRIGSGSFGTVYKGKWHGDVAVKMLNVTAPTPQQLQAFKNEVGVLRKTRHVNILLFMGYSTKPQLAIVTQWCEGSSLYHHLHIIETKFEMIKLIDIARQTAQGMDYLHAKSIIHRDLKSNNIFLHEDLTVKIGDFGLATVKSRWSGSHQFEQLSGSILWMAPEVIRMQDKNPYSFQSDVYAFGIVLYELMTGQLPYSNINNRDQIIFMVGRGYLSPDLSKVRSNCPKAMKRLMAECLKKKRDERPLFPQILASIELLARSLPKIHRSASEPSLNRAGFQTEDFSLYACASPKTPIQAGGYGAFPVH
T1 sequence (P45984 whole entry): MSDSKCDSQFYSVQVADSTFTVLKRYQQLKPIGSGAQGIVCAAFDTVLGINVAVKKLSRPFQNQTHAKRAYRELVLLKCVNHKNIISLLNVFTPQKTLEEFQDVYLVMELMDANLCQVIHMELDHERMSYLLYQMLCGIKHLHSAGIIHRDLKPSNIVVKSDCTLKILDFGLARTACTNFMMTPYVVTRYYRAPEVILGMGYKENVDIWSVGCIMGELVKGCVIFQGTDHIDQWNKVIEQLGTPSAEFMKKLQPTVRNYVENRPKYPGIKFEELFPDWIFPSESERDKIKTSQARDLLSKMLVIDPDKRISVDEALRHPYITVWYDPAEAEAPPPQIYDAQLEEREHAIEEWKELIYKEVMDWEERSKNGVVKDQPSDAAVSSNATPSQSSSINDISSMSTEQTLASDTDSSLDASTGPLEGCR
Chain of AURKB (Q96GD4 whole entry): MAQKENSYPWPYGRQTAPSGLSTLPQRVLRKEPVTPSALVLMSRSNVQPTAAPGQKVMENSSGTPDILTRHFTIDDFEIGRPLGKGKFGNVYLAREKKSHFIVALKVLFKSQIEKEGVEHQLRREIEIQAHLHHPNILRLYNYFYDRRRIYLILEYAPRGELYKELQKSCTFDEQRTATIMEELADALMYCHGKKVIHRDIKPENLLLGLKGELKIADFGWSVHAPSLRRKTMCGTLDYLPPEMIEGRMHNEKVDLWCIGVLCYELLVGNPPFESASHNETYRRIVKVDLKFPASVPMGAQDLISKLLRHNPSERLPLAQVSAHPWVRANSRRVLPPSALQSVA
T2 sequence (Q9Y6E0 whole entry): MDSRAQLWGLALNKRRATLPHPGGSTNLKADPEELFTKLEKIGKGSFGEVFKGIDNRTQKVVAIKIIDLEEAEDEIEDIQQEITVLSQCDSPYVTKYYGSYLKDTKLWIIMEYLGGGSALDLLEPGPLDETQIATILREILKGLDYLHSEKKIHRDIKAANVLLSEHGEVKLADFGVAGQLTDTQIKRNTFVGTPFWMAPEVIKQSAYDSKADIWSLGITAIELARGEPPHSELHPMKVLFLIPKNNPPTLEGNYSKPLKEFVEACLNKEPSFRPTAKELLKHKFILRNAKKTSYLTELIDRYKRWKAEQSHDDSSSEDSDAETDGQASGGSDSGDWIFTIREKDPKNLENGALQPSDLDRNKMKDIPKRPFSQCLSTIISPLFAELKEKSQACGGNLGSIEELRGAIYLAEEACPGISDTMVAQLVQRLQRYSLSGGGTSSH
Chain of SLK (Q9H2G2 whole entry): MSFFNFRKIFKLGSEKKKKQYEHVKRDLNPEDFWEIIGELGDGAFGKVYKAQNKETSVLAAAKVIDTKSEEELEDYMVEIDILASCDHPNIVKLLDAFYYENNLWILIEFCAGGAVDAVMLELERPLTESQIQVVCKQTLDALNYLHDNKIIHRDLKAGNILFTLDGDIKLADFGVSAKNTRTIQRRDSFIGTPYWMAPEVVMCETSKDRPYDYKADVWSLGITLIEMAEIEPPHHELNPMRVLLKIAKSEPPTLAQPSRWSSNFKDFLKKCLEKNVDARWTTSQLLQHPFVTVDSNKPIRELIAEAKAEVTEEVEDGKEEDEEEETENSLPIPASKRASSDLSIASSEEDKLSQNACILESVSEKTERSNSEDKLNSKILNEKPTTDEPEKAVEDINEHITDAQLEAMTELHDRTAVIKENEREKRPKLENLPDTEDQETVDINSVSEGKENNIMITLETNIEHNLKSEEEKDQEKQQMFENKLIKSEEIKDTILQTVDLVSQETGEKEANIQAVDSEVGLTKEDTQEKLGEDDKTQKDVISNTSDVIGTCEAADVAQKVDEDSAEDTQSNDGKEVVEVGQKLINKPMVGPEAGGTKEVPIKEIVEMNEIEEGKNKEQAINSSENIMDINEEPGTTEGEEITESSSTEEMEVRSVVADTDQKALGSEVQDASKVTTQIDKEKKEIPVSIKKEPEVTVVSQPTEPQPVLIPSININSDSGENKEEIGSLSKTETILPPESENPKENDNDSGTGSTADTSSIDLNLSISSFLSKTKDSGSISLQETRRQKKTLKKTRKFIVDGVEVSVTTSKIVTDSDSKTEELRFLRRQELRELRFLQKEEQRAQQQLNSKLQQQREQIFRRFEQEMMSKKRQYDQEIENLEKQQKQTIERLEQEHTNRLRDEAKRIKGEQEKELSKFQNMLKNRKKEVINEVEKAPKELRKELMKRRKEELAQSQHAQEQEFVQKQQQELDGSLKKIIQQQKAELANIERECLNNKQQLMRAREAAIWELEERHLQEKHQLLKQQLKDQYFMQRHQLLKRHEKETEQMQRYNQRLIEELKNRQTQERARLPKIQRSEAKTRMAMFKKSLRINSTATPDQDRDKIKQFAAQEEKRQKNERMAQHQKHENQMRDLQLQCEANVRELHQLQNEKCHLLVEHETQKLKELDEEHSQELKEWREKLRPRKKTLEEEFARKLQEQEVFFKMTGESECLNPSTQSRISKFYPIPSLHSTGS
Chain of FGFR2 (P21802 whole entry): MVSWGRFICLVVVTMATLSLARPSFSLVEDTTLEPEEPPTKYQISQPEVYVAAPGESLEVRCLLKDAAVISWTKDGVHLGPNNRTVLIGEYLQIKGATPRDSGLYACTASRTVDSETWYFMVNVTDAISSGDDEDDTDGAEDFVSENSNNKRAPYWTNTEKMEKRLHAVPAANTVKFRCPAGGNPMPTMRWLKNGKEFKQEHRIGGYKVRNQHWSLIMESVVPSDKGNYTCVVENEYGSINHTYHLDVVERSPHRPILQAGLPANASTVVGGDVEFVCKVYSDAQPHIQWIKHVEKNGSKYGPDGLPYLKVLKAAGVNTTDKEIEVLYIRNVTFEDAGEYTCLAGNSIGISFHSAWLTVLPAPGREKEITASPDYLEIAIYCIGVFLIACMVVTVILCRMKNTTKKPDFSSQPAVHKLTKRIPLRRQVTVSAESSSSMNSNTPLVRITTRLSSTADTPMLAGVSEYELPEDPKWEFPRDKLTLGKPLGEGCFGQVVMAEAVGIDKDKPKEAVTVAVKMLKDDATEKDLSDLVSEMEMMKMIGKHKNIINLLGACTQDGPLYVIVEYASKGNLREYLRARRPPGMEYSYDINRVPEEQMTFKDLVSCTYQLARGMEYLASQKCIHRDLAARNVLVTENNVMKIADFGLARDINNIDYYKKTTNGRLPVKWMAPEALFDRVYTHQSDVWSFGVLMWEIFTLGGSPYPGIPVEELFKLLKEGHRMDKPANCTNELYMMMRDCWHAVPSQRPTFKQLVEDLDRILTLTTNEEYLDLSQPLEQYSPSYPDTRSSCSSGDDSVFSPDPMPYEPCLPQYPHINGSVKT
T3 sequence (Q9UPE1 whole entry): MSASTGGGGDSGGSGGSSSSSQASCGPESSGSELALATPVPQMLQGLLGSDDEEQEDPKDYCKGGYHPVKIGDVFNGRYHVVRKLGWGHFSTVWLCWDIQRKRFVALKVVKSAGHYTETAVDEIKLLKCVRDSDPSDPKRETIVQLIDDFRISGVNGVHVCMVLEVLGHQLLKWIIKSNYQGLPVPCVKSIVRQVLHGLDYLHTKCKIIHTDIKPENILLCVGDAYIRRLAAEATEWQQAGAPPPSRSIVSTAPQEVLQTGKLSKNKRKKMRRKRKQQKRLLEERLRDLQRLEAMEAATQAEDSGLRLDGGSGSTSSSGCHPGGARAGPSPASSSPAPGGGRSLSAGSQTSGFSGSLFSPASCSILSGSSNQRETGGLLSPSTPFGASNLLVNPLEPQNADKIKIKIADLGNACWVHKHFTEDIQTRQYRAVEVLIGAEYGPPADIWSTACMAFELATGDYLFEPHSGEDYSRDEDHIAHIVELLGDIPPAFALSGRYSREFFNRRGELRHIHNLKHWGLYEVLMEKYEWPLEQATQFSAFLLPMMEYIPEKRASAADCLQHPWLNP

ΔTm at 10 µM (JNK2; read-out: 7c): 0 °C
ΔTm at 10 µM (MST3; read-out: 7c): -3 °C
ΔTm at 10 µM (MSSK1; read-out: 7c): 1 °C
ΔTm at 10 µM (SLK; read-out: 7c): 1 °C
ΔTm at 10 µM (DYRK1A; read-out: 7c): 5 °C
ΔTm at 10 µM (BRAF; read-out: 7c): 7 °C
ΔTm at 10 µM (CAMK4; read-out: 7c): -1 °C
ΔTm at 10 µM (AURKB; read-out: 7c): 2 °C
ΔTm at 10 µM (FGFR2; read-out: 7c): 0 °C
ΔTm at 10 µM (EPHB3; read-out: 7c): -1 °C
SMILES: COc1ccc(OC(C)C)cc1Nc1cncc(-c2ccc(C(=O)O)cc2)n1 [7c]

ΔTm at 10 µM (JNK2; read-out: 6c): 0 °C
ΔTm at 10 µM (MST3; read-out: 6c): -3 °C
ΔTm at 10 µM (MSSK1; read-out: 6c): 1 °C
ΔTm at 10 µM (SLK; read-out: 6c): 2 °C
ΔTm at 10 µM (DYRK1A; read-out: 6c): 6 °C
ΔTm at 10 µM (BRAF; read-out: 6c): 8 °C
ΔTm at 10 µM (CAMK4; read-out: 6c): 0 °C
ΔTm at 10 µM (AURKB; read-out: 6c): 4 °C
ΔTm at 10 µM (FGFR2; read-out: 6c): 0 °C
ΔTm at 10 µM (EPHB3; read-out: 6c): 1 °C
SMILES: CC(C)Oc1ccc2ccn(-c3cncc(-c4ccc(C(=O)O)cc4)n3)c2c1 [6c]

ΔTm at 10 µM (JNK2; read-out: 2): 1 °C
ΔTm at 10 µM (MST3; read-out: 2): 1 °C
ΔTm at 10 µM (MSSK1; read-out: 2): 3 °C
ΔTm at 10 µM (SLK; read-out: 2): 3 °C
ΔTm at 10 µM (DYRK1A; read-out: 2): 7 °C
ΔTm at 10 µM (BRAF; read-out: 2): 6 °C
ΔTm at 10 µM (CAMK4; read-out: 2): 1 °C
ΔTm at 10 µM (AURKB; read-out: 2): 4 °C
ΔTm at 10 µM (FGFR2; read-out: 2): 0 °C
ΔTm at 10 µM (EPHB3; read-out: 2): 0 °C
SMILES: CC(C)Nc1ccc2cnn(-c3cncc(-c4ccc(C(=O)O)cc4)n3)c2c1 [compound 2, 2]
